This is an account of results in patent US8283336B2, “Unit dosage for brain health” (N. V. Nutricia, priority 2007, dated 2012).

For series [1] the following is noted: per 1.0 mg of the tocopherol equivalent; cited from earlier work.
Another series concerns PC12 cells. As to the kind of experiment: survival of PC12 cells during incubation with nutrients. Particulars: control medium plus nutrient. It is filed as cell-based.
Series [2] concerns APP/PS1 mice. Nature of the series: neurodegeneration (amino-cupric staining of neuritic plaques) in APP/PS1 mice fed enriched diets. Particulars: diet fed 3 months from 3 to 6 months of age, compared to control diet. Type of series: in vivo. The text has this: (§1) These mice start showing plaques in their brains as early as 4-5 months of age and are considered a good model for AD in scientific literature.
(§2) The diets were fed for a period of 3 months until the age of 6 months. Thereafter the mice were sacrificed and their brains processed for abeta plaque analyses and neurodegeneration analyses. The brain was cut into thin slices using a vibratome and the slices were stained for abeta using an antibody recognizing human abeta and for neurodegeneration using the amino-cupric staining The total number of plaques in the hippocampus was counted and the total surface of the area covered by plaques (plaque burden) was determined. Total surface area covered with neuritic plaques (staining positive for amino-cupric) was determined to measure the level of neurodegeneration.

In series [3] the test system is muscarinic acetylcholine receptor. Nature of the series: oxotremorine-induced membrane potential change in PC12 cells after incubation with nutrients (receptor functionality). It is filed as cell-based. The conditions noted are these: 1 day of incubation, then 50 μM oxotremorine, percentage change compared to control conditions. Here is the method: After 1 day of incubation the medium+additions were replaced by control medium and the cells were stimulated with 50 μM oxotremorine, an agonist at the muscarinic acetylcholine receptor, involved in learning and memory. Oxotremorine induces a depolarization of the membrane which can be measured as a change in membrane potential. At a fixed dose of the agonist, increases in membrane potential are thought to reflect improvements in receptor functioning.

For series [4], the system named is APP/PS1 mice. As to the kind of experiment: abeta plaque burden in hippocampus of APP/PS1 mice fed enriched diets. Type of series: in vivo. The conditions noted are these: diet fed 3 months from 3 to 6 months of age, compared to control diet.
Excerpt: as §1, §2

Take `Cc1c(C)c2c(c(C)c1O)CCC(C)(CCCC(C)CCCC(C)CCCC(C)C)O2` (racemic) [all rac-α-tocopherol]: in series [1], the “IU vitamin E” value is 1.10 IU and the “x mg α-TE” value was 0.74 mg α-TE.

As for `CC(=O)Oc1c(C)c(C)c2c(c1C)CCC(C)(CCCC(C)CCCC(C)CCCC(C)C)O2` (racemic) [all rac-α-tocopheryl acetate], in series [1], the “IU vitamin E” value is listed as 1.00 IU and the “x mg α-TE” value is given as 0.67 mg α-TE.

Regarding `Cc1c(C)c2c(c(C)c1OC(=O)CCC(=O)O)CCC(C)(CCCC(C)CCCC(C)CCCC(C)C)O2` (racemic) [all rac-α-tocopheryl succinate], in series [1], the “IU vitamin E” value is listed as 0.89 IU and the “x mg α-TE” value is given as 0.60 mg α-TE.

`CC/C=C\C/C=C\C/C=C\C/C=C\C/C=C\C/C=C\CCC(=O)O` [DHA, docosahexaenoic acid]: the “cell death on incubation” value in the series on PC12 cells is “led to cell death”.

For the molecule `Cc1c(C)c2c(c(C)c1O)CC[C@@](C)(CCC[C@H](C)CCC[C@H](C)CCCC(C)C)O2` [RRR-α-tocopherol], in series [1], the “IU vitamin E” value is given as 1.49 IU and the “x mg α-TE” value is 1.0 mg α-TE.

As for `CC(=O)Oc1c(C)c(C)c2c(c1C)CC[C@@](C)(CCC[C@H](C)CCC[C@H](C)CCCC(C)C)O2` [RRR-α-tocopheryl acetate], in series [1], the “IU vitamin E” value is reported as 1.36 IU and the “x mg α-TE” value was 0.91 mg α-TE.

As for `Cc1c(C)c2c(c(C)c1OC(=O)CCC(=O)O)CC[C@@](C)(CCC[C@H](C)CCC[C@H](C)CCCC(C)C)O2` [RRR-α-tocopheryl succinate], in series [1], the “IU vitamin E” value is reported as 1.21 IU and the “x mg α-TE” value was 0.81 mg α-TE.

Regarding `CC(C)=CCC/C(C)=C/CC/C(C)=C/CC[C@]1(C)CCc2c(C)c(O)c(C)c(C)c2O1` [RRR-α-tocotrienol], in series [1], the “IU vitamin E” value is listed as 0.75 IU and the “x mg α-TE” value is 0.50 mg α-TE.

As for `Cc1cc(O)c(C)c2c1O[C@](C)(CCC[C@H](C)CCC[C@H](C)CCCC(C)C)CC2` [RRR-β-tocopherol], in series [1], the “IU vitamin E” value is 0.75 IU and the “x mg α-TE” value was 0.50 mg α-TE.

As to `CC(C)=CCC/C(C)=C/CC/C(C)=C/CC[C@]1(C)CCc2c(C)c(O)cc(C)c2O1` [RRR-β-tocotrienol], in series [1], the “IU vitamin E” value was 0.08 IU and the “x mg α-TE” value is 0.05 mg α-TE.

Regarding `Cc1c(O)cc2c(c1C)O[C@](C)(CCC[C@H](C)CCC[C@H](C)CCCC(C)C)CC2` [RRR-γ-tocopherol], in series [1], the “IU vitamin E” value is 0.15 IU and the “x mg α-TE” value was 0.10 mg α-TE.

Take `Cc1cc(O)cc2c1O[C@](C)(CCC[C@H](C)CCC[C@H](C)CCCC(C)C)CC2` [RRR-δ-tocopherol]: in series [1], the “IU vitamin E” value was 0.05 IU and the “x mg α-TE” value was 0.03 mg α-TE.

Consider `O=c1ccn([C@@H]2O[C@H](COP(=O)(O)O)[C@@H](O)[C@H]2O)c(=O)[nH]1` [UMP, uridine monophosphate], for which the level of neurodegeneration entry in the series with APP/PS1 mice [2] was “did not differ from the control”. Moreover, the membrane potential change entry in series [3] is “did not affect membrane potential change”. In addition, in the series with APP/PS1 mice [4], the “plaque burden in the hippocampus” value is “not affected”.
